Experimental data taken from patent US10717716B2, “1,3,4-oxadiazole derivative compounds as histone deacetylase 6 inhibitor, and the pharmaceutical composition comprising the same” (Chong Kun Dang Pharmaceutical Corp., priority 2015, dated 2020).

Experiments:
human recombinant HDAC1 = target: T1, human recombinant HDAC1 (Homo sapiens, UniProt Q13547); experiment: HDAC1 enzyme activity inhibition assay (HDAC Fluorimetric Drug Discovery Kit); type: biochemical; conditions: human recombinant HDAC1, Fluor de Lys substrate 10 μM, 30° C. 60 minutes
T1 construct: purchased Enzo Life Science BML-SE456
Procedure: In order to examine the HDAC6 selectivity of the compounds of formula I of the present invention by HDAC1 and HDAC6 enzymatic activity inhibition assays, an experiment was performed using a conventional substance as a control.
HDAC enzyme activity was measured using a HDAC Fluorimetric Drug Discovery Kit (BML-AK511, 516, Enzo Life Science). For the HDAC1 enzyme activity test, human recombinant HDAC1 (BML-SE456) was used as an enzyme source, and Fluor de Lys®-“SIRT1 (BNL-KI177) was used as a substrate. A 5-fold dilution of the compound was seeded into a 96-well plate, and then 0.3 μg of the enzyme and 10 μM of the substrate were added to each well of the plate and allowed to react at 30° C. for 60 minutes. Then, Fluor de Lys®-Developer II (BML-KI176) was added thereto and allowed to react for 30 minutes, after which the fluorescence value (Ex 360, Em 460) was measured using a multi-plate reader (Flexstation 3, Molecular Device). The HDAC6 enzyme was tested using human recombinant HDAC6 (382180) (Calbiochem) according to the same protocol as the HDAC1 enzyme activity test method. Based on the resulting values, each IC5, value was calculated using GraphPad Prism4.0 program.

human recombinant HDAC6 = target: T2, human recombinant HDAC6 (Homo sapiens, UniProt Q9UBN7); experiment: HDAC6 enzyme activity inhibition assay (HDAC Fluorimetric Drug Discovery Kit); type: biochemical; conditions: for HDAC6 selectivity (fold): HDAC6 over HDAC1; for IC50: human recombinant HDAC6, same protocol as HDAC1, read-out: HDAC6
T2 construct: purchased Calbiochem 382180
T2 sequence (Q9UBN7 1-1215): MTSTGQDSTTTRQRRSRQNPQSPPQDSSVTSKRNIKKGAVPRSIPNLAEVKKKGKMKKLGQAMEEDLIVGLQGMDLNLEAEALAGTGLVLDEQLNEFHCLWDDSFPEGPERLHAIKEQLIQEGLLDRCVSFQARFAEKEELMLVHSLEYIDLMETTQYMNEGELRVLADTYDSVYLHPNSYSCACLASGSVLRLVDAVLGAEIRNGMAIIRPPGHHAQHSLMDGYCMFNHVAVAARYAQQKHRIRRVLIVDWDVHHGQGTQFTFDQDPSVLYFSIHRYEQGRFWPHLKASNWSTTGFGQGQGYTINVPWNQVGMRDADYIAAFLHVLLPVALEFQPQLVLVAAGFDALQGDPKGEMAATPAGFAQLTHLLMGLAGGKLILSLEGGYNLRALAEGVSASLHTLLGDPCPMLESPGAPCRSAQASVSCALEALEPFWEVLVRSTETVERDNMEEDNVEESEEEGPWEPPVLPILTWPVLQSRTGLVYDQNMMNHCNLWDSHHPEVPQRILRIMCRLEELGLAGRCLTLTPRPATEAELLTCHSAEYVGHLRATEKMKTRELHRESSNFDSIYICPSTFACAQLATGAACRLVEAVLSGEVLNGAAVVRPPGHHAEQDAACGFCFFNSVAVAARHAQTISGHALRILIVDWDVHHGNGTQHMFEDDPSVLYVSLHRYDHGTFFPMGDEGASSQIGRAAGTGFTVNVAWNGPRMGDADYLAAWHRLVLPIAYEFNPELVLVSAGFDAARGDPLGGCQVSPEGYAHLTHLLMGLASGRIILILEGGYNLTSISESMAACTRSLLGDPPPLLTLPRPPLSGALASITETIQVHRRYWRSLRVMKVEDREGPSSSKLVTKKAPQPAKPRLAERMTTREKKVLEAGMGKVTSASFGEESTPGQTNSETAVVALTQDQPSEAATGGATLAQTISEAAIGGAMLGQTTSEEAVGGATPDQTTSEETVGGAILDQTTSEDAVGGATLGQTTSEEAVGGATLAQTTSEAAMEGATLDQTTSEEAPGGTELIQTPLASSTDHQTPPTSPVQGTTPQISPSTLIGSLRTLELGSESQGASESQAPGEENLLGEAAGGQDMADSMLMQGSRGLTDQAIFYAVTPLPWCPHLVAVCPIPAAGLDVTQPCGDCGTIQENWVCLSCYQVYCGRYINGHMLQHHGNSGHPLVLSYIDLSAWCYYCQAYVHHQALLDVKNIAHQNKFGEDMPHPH
Method in brief: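 Human recombinant HDAC1 or HDAC6 (0.3 μg) reacted with 10 μM Fluor de Lys-SIRT1 substrate and 5-fold compound dilutions for 60 min at 30 °C. Developer II added for 30 min, fluorescence read at Ex 360/Em 460; IC50 calculated from the readings.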

T1 sequence (Q13547 whole entry): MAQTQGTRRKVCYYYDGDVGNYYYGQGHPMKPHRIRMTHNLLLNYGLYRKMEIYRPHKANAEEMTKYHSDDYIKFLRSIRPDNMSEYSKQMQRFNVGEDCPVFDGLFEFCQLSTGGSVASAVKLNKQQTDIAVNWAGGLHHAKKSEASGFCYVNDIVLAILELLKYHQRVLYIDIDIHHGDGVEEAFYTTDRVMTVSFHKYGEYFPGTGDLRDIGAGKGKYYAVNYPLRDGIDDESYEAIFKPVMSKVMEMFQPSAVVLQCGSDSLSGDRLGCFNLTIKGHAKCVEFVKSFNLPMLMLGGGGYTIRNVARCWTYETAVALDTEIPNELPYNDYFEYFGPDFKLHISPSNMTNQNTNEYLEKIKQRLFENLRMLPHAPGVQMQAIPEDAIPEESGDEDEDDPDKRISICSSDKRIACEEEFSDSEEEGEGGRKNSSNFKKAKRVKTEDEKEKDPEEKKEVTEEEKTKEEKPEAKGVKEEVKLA

| SMILES | IC50 (human recombinant HDAC1) [µM] | HDAC6 selectivity (fold) (human recombinant HDAC6) | IC50 (human recombinant HDAC6) [nM] |
| --- | --- | --- | --- |
| O=C(N1CCS(=O)(=O)CC1)N(Cc1ccc(-c2nnc(C(F)(F)F)o2)cc1)c1ccc(-c2ccc3c(c2)OCO3)cc1 [Compound 21493, N-(4-(benzo[d][1,3]dioxol-5-yl)phenyl)-N-(4-(5-(trifluoromethyl)-1,3,4-oxadiazol-2-yl)benzyl)thiomorpholine-4-carboxamide 1,1-dioxide] | 1.74 | 6 | 313 |
| O=C(N1CCS(=O)(=O)CC1)N(Cc1ccc(-c2nnc(C(F)(F)F)o2)cc1)c1cccc(-c2cccnc2)c1 [Compound 21436, N-(3-(pyridin-3-yl)phenyl)-N-(4-(5-(trifluoromethyl)-1,3,4-oxadiazol-2-yl)benzyl)thiomorpholine-4-carboxamide 1,1-dioxide] | 5.73 | 13 | 433 |
| O=C(N1CC[C@@H](O)C1)N(Cc1ccc(-c2nnc(C(F)(F)F)o2)cc1F)c1ccc(F)c(Cl)c1 [Compound 21664, (R)—N-(3-chloro-4-fluorophenyl)-N-(2-fluoro-4-(5-(trifluoromethyl)-1,3,4-oxadiazol-2-yl)benzyl)-3-hydroxypyrrolidine-1-carboxamide] | 17.1 | 114 | 151 |
| CCN1CCN(C(=O)N(Cc2ccc(-c3nnc(C(F)(F)F)o3)cc2F)c2ccc(F)cc2)CC1 [Compound 21869, 4-Ethyl-N-(2-fluoro-4-(5-(trifluoromethyl)-1,3,4-oxadiazol-2-yl)benzyl)-N-(4-fluorophenyl)piperazine-1-carboxamide] | 18.9 | 137 | 138 |
| CC(C)(C)CN1CCN(Cc2ccc(N(Cc3ccc(-c4nnc(C(F)(F)F)o4)cc3F)C(=O)N3CCS(=O)(=O)CC3)cc2)CC1 [Compound 21897, N-(2-fluoro-4-(5-(trifluoromethyl)-1,3,4-oxadiazol-2-yl)benzyl)-N-(4-((4-neopentylpiperazin-1-yl)methyl)phenyl)thiomorpholine-4-carboxamide 1,1-dioxide] | 68.1 | 140 | 487 |
| CCN1CCN(C(=O)N(Cc2ccc(-c3nnc(C(F)(F)F)o3)cc2F)c2cccc(Cl)c2)CC1 [Compound 21861, N-(3-Chlorophenyl)-4-ethyl-N-(2-fluoro-4-(5-(trifluoromethyl)-1,3,4-oxadiazol-2-yl)benzyl)piperazine-1-carboxamide] | 13.7 | 40 | 343 |
| CN1CCN(c2cccc(N(Cc3ccc(-c4nnc(C(F)F)o4)cc3)C(=O)N3CCS(=O)(=O)CC3)c2)CC1 [Compound 21621, N-(4-(5-(difluoromethyl)-1,3,4-oxadiazol-2-yl)benzyl)-N-(3-(4-methylpiperazin-1-yl)phenyl)thiomorpholine-4-carboxamide 1,1-dioxide] | – | 16 | 637 |
| O=C(N1CCS(=O)(=O)CC1)N(Cc1ccc(-c2nnc(C(F)F)o2)cc1F)c1ccc(CN2CCOCC2)cc1 [Compound 21918, N-(4-(5-(difluoromethyl)-1,3,4-oxadiazol-2-yl)-2-fluorobenzyl)-N-(4-(morpholinomethyl)phenyl)thiomorpholine-4-carboxamide 1,1-dioxide] | – | 52 | 193 |
| O=C(NC1CCCC1)N(Cc1ccc(-c2nnc(C(F)(F)F)o2)cc1)c1ccccc1 [Compound 21341, 3-Cyclopentyl-1-phenyl-1-(4-(5-(trifluoromethyl)-1,3,4-oxadiazol-2-yl)benzyl)urea] | – | 8 | 1190 |
| CC(C)(O)CN1CCN(C(=O)N(Cc2ccc(-c3nnc(C(F)(F)F)o3)cc2)c2ccccc2)CC1 [Compound 21396, 4-(2-hydroxy-2-methylpropyl)-N-phenyl-N-(4-(5-(trifluoromethyl)-1,3,4-oxadiazol-2-yl)benzyl)piperazine-1-carboxamide] | – | 34 | 292 |

Compounds with a lower IC50 (human recombinant HDAC6), results first:

| IC50 (human recombinant HDAC1) [µM] | HDAC6 selectivity (fold) (human recombinant HDAC6) | IC50 (human recombinant HDAC6) [nM] | SMILES |
| --- | --- | --- | --- |
| 1.65 | 18 | 89 | O=C(N1CCS(=O)(=O)CC1)N(Cc1ccc(-c2nnc(C(F)(F)F)o2)cc1)c1ccc(-c2cccnc2)cc1 [Compound 21489, N-(4-(pyridin-3-yl)phenyl)-N-(4-(5-(trifluoromethyl)-1,3,4-oxadiazol-2-yl)benzyl)thiomorpholine-4-carboxamide 1,1-dioxide] |
| 20.8 | 370 | 56 | O=C(N1CCS(=O)(=O)CC1)N(Cc1ccc(-c2nnc(C(F)F)o2)cn1)c1ccc(-c2ccncc2)cc1 [Compound 21823, N-((5-(5-(difluoromethyl)-1,3,4-oxadiazol-2-yl)pyridin-2-yl)methyl)-N-(4-(pyridin-4-yl)phenyl)thiomorpholine-4-carboxamide 1,1-dioxide] |
| 44.4 | 467 | 95 | CCN1CCN(C(=O)N(Cc2ccc(-c3nnc(C(F)F)o3)cc2)c2ccc(Cl)cc2)CC1 [Compound 21880, N-(4-Chlorophenyl)-N-(4-(5-(difluoromethyl)-1,3,4-oxadiazol-2-yl)benzyl)-4-ethylpiperazine-1-carboxamide] |
| 37.1 | 966 | 38 | O=C(N1CCOCC1)N(Cc1ccc(-c2nnc(C(F)F)o2)cc1F)c1ccc(F)cc1F [Compound 21858, N-(4-(5-(difluoromethyl)-1,3,4-oxadiazol-2-yl)-2-fluorobenzyl)-N-(2,4-difluorophenyl)morpholine-4-carboxamide] |
| 75.7 | 1364 | 55 | CCN1CCN(Cc2ccc(N(Cc3ccc(-c4nnc(C(F)F)o4)cc3F)C(=O)N3CCS(=O)(=O)CC3)cc2)CC1 [Compound 21899, N-(4-(5-(difluoromethyl)-1,3,4-oxadiazol-2-yl)-2-fluorobenzyl)-N-(4-((4-ethylpiperazin-1-yl)methyl)phenyl)thiomorpholine-4-carboxamide 1,1-dioxide] |
| 10 | 115 | 87 | O=C(N1CCOCC1)N(Cc1ccc(-c2nnc(C(F)(F)F)o2)cc1)c1ccccc1 [Compound 21249, N-phenyl-N-(4-(5-(trifluoromethyl)-1,3,4-oxadiazol-2-yl)benzyl)morpholine-4-carboxamide] |
| – | 141 | 71 | Cc1cccc(N(Cc2ccc(-c3nnc(C(F)(F)F)o3)cc2F)C(=O)N2CCS(=O)(=O)CC2)c1 [Compound 21483, N-(2-fluoro-4-(5-(trifluoromethyl)-1,3,4-oxadiazol-2-yl)benzyl)-N-(m-tolyl)thiomorpholine-4-carboxamide 1,1-dioxide] |
| – | 149 | 67 | CCN1CC2(CCN(C(=O)N(Cc3ccc(-c4nnc(C(F)(F)F)o4)cc3)c3ccccc3)CC2)C1 [Compound 21421, 2-Ethyl-N-phenyl-N-(4-(5-(trifluoromethyl)-1,3,4-oxadiazol-2-yl)benzyl)-2,7-diazaspiro[3.5]nonane-7-carboxamide] |
